The source of these data is ChEMBL document CHEMBL1122346, “Antihypertensive activity of 6-arylpyrido[2,3-d]pyrimidin-7-amine derivatives. 2. 7-Acyl amide analogues” (J Med Chem, 1983).

What all share (format): functional
Assay [1] relates to Rattus norvegicus. The experiment in a line: Antihypertensive activity in conscious spontaneously hypertensive rats 24 hr following 50 mg/kg p.o.; No significant reduction. The following applies: route oral.
Assay [2] relates to Rattus norvegicus. Nature of the assay: Antihypertensive activity in conscious spontaneously hypertensive rats 10 hr following 50 mg/kg p.o.; No significant reduction. To be noted: route oral.
The test system of assay [3] is Rattus norvegicus. Nature of the assay: Antihypertensive activity in conscious spontaneously hypertensive rats 2 hr following 50 mg/kg p.o.; No significant reduction. The following applies: route oral.
For assay [4], the system named is Rattus norvegicus. The experiment in a line: Antihypertensive activity rating in conscious SHR after 24 h post dose at 10 mg/kg (po); 0=No significant reduction.
The subject of assay [5] is Rattus norvegicus. The experiment in a line: Antihypertensive activity rating in conscious SHR after 10 hr post dose at 10 mg/kg (po); 0=No significant reduction.
For assay [6], the system named is Rattus norvegicus. The experiment in a line: Antihypertensive activity rating in conscious SHR after 2 hr post dose at 10 mg/kg (po); 0=No significant reduction.
Assay [7] deals with Rattus norvegicus. The experiment in a line: Antihypertensive activity rating in conscious SHR after 2 hr post dose at 50 mg/kg (po); Range 10-20%.
Assay [8] is filed under the species Rattus norvegicus. The experiment in a line: Maximum percent decrease in blood pressure in SHR ( hour post dose in parentheses).
Assay [9] relates to Rattus norvegicus. Nature of the assay: Antihypertensive activity in conscious spontaneously hypertensive rats 10 hr following 50 mg/kg p.o.; Range 10-20%. To be noted: route oral.
For assay [10], the system named is Rattus norvegicus. Nature of the assay: Antihypertensive activity rating in conscious SHR after 24 hr post dose at 50 mg/kg (po); Range 10-20%.
The test system of assay [11] is Rattus norvegicus. Nature of the assay: Antihypertensive activity rating in conscious SHR after 10 hr post dose at 10 mg/kg (po); Range 10-20%.
The subject of assay [12] is Rattus norvegicus. Nature of the assay: Antihypertensive activity rating in conscious SHR after 2 hr post dose at 10 mg/kg (po); Range 10-20%.
Assay [13] concerns Rattus norvegicus. Nature of the assay: Antihypertensive activity rating in conscious SHR after 2 hr post dose at 50 mg/kg (po); Range 20-30%.

As to `CC(=O)Nc1nc2nc(C)ncc2cc1-c1ccccc1C`, the Activity rating with Rattus norvegicus [1], in the assay with Rattus norvegicus [2] and in the assay with Rattus norvegicus [3] was 0% in each case.

As for `COc1ccc(CC(=O)Nc2nc3nc(C)ncc3cc2-c2c(Cl)cccc2Cl)cc1OC`, the Activity rating with Rattus norvegicus [4], in the assay on Rattus norvegicus [5] and in the assay with Rattus norvegicus [6] was 0% throughout.

`CN/C(=N/c1nc2nc(C)ncc2cc1-c1c(Cl)cccc1Cl)SC`: the Activity rating with Rattus norvegicus [1], with Rattus norvegicus [2] and in the assay on Rattus norvegicus [3] was 0% throughout.

Take `Cc1ncc2cc(-c3c(Cl)cccc3Cl)c(NC(=O)Cc3c(Cl)cccc3Cl)nc2n1`: the Activity rating with Rattus norvegicus [4], with Rattus norvegicus [5] and with Rattus norvegicus [6] was 0% throughout.

On to `CC(=O)Nc1nc2ncncc2cc1-c1c(Cl)cccc1Cl`, for which the Activity rating in the assay with Rattus norvegicus [7] is 10%; in the assay with Rattus norvegicus [1] it was 0%; with Rattus norvegicus [9], 10%. The Decrease in the assay listed under Rattus norvegicus [8] was 16%.

As to `Cc1ncc2cc(-c3c(Cl)cccc3Cl)c(NC(=O)c3ccccc3F)nc2n1`, the Activity rating with Rattus norvegicus [4], in the assay on Rattus norvegicus [5] and with Rattus norvegicus [6] was 0% in each case.

For `Cc1ncc2cc(-c3c(Cl)cccc3Cl)c(/N=C/N(C)C)nc2n1`, the Activity rating in the assay with Rattus norvegicus [10] worked out at 10%; in the assay with Rattus norvegicus [9] it was 10%; with Rattus norvegicus [3] it was 0%. Besides, the Decrease in the assay listed under Rattus norvegicus [8] is reported as 17%.

On to `Cc1ncc2cc(-c3c(Cl)cccc3Cl)c(NC(=O)Nc3ccccc3)nc2n1`, for which the Activity rating in the assay on Rattus norvegicus [1], in the assay with Rattus norvegicus [2] and in the assay on Rattus norvegicus [3] was 0% each time.

For `Cc1ncc2cc(-c3c(Cl)cccc3Cl)c(NC(=O)C(Cl)Cl)nc2n1`, the Activity rating in the assay on Rattus norvegicus [4] amounted to 0%; with Rattus norvegicus [11], 10%; in the assay on Rattus norvegicus [12], 10%. In the assay filed under Rattus norvegicus [8], the Decrease worked out at 16%.

As to `Cc1ncc2cc(-c3c(Cl)cccc3Cl)c(NC(=O)c3cccc(N(C)C)c3)nc2n1`, the Activity rating is listed as 10% in the assay with Rattus norvegicus [10], 10% with Rattus norvegicus [9] and 0% in the assay on Rattus norvegicus [3]. Also, the Decrease in the assay listed under Rattus norvegicus [8] is given as 15%.

Consider `CC(=O)Nc1nc2ncncc2cc1-c1ccccc1C`, for which the Activity rating with Rattus norvegicus [1], in the assay with Rattus norvegicus [2] and in the assay with Rattus norvegicus [3] was 0% throughout.

`Cc1ncc2cc(-c3c(Cl)cccc3Cl)c(NC(N)=O)nc2n1`: the Activity rating with Rattus norvegicus [1], with Rattus norvegicus [2] and with Rattus norvegicus [3] was 0% each time. For the same molecule, the Decrease in the assay listed under Rattus norvegicus [8] amounted to 16%.

`C/C(=N\c1nc2nc(C)ncc2cc1-c1c(Cl)cccc1Cl)N(C)C`: the Activity rating with Rattus norvegicus [7] came to 10%; in the assay with Rattus norvegicus [10], 10%; in the assay on Rattus norvegicus [2], 0%. Further, the Decrease in the assay listed under Rattus norvegicus [8] is 18%.

Consider `Cc1ncc2cc(-c3c(Cl)cccc3Cl)c(NC(=O)OC(C)C)nc2n1`, for which the Activity rating in the assay with Rattus norvegicus [4] worked out at 0%; with Rattus norvegicus [11] it was 10%; with Rattus norvegicus [6] it was 0%. For the same molecule, the Decrease in the assay listed under Rattus norvegicus [8] was 15%.

Consider `Cc1ncc2cc(-c3c(Cl)cccc3Cl)c(NC(=O)c3ccccc3C)nc2n1`, for which the figures for the Activity rating with Rattus norvegicus [10], with Rattus norvegicus [9] and in the assay with Rattus norvegicus [3] were 10%, 10% and 0%, respectively. Moreover, the Decrease in the assay filed under Rattus norvegicus [8] is 23%.

Regarding `CCSCC(=O)Nc1nc2nc(C)ncc2cc1-c1c(Cl)cccc1Cl`, the Activity rating was 0% in the assay with Rattus norvegicus [4], 0% in the assay with Rattus norvegicus [5] and 10% in the assay on Rattus norvegicus [12]. The Decrease in the assay filed under Rattus norvegicus [8] was determined as 19%.

As for `Cc1ncc2cc(-c3c(Cl)cccc3Cl)c(NC(=O)C3CC3)nc2n1`, the Activity rating in the assay on Rattus norvegicus [1], with Rattus norvegicus [2] and in the assay on Rattus norvegicus [3] was 0% in each case.

In the case of `Cc1ncc2cc(-c3c(Cl)cccc3Cl)c(=O)n(C)c2n1`, the Activity rating with Rattus norvegicus [1], with Rattus norvegicus [2] and with Rattus norvegicus [3] was 0% in each case.

For `Cc1ncc2cc(-c3c(Cl)cccc3Cl)c(NC(=O)C(C)(C)C)nc2n1`, the Activity rating in the assay with Rattus norvegicus [4], in the assay with Rattus norvegicus [5] and in the assay on Rattus norvegicus [6] was 0% each time.

As to `CC(=O)Nc1nc2nc(C)nc(C)c2cc1-c1c(Cl)cccc1Cl`, the Activity rating with Rattus norvegicus [13] is recorded as 20%; in the assay with Rattus norvegicus [1], 0%; in the assay on Rattus norvegicus [2], 0%. Further, the Decrease in the assay filed under Rattus norvegicus [8] is 20%.

As to `CC(=O)Nc1nc2nc(C)nc(NC(C)=O)c2cc1-c1c(Cl)cccc1Cl`, the Activity rating with Rattus norvegicus [1], with Rattus norvegicus [2] and with Rattus norvegicus [3] was 0% each time.

For the molecule `Cc1ncc2cc(-c3c(Cl)cccc3Cl)c(NC(=O)C(C)C)nc2n1`, the Activity rating in the assay on Rattus norvegicus [4] came out at 0%; in the assay on Rattus norvegicus [5], 0%; with Rattus norvegicus [12], 10%. Further, in the assay listed under Rattus norvegicus [8], the Decrease was determined as 15%.

Take `COc1ccc(C(=O)Nc2nc3nc(C)ncc3cc2-c2c(Cl)cccc2Cl)cc1OC`: the Activity rating with Rattus norvegicus [4] stood at 0%; in the assay on Rattus norvegicus [11], 10%; in the assay on Rattus norvegicus [12], 10%. In addition, in the assay listed under Rattus norvegicus [8], the Decrease was determined as 16%.

On to `COc1ccccc1C(=O)Nc1nc2nc(C)ncc2cc1-c1c(Cl)cccc1Cl`, for which the Activity rating in the assay with Rattus norvegicus [4], in the assay with Rattus norvegicus [5] and in the assay on Rattus norvegicus [6] was 0% in each case.

As to `C/N=C(\N)Nc1nc2nc(C)ncc2cc1-c1c(Cl)cccc1Cl`, the Activity rating amounted to 20% with Rattus norvegicus [13], 0% with Rattus norvegicus [1] and 10% in the assay with Rattus norvegicus [9]. Moreover, the Decrease in the assay listed under Rattus norvegicus [8] amounted to 24%.

Consider `CNC(=O)Nc1nc2nc(C)ncc2cc1-c1c(Cl)cccc1Cl`, for which the figures for the Activity rating in the assay with Rattus norvegicus [13], in the assay with Rattus norvegicus [1] and in the assay on Rattus norvegicus [9] were 20%, 0% and 10%, respectively. Also, the Decrease in the assay filed under Rattus norvegicus [8] was determined as 26%.

In the case of `C/N=C(\NC)Nc1nc2nc(C)ncc2cc1-c1c(Cl)cccc1Cl`, the Activity rating in the assay with Rattus norvegicus [13] was determined as 20%; in the assay with Rattus norvegicus [1] it was 0%; in the assay with Rattus norvegicus [9], 10%. In addition, the Decrease in the assay listed under Rattus norvegicus [8] was found to be 24%.

Take `CCNC(=O)Nc1nc2nc(C)ncc2cc1-c1c(Cl)cccc1Cl`: the Activity rating with Rattus norvegicus [1], in the assay with Rattus norvegicus [2] and in the assay on Rattus norvegicus [3] was 0% each time.

With `Cc1ncc2cc(-c3c(Cl)cccc3Cl)c(NC(=O)CN(C)C)nc2n1`, the Activity rating in the assay with Rattus norvegicus [4] stood at 0%; with Rattus norvegicus [11], 10%; in the assay on Rattus norvegicus [12], 10%. In addition, the Decrease in the assay filed under Rattus norvegicus [8] was 18%.

`C=CCNC(=O)Nc1nc2nc(C)ncc2cc1-c1c(Cl)cccc1Cl`: the Activity rating in the assay on Rattus norvegicus [1] was 0%; in the assay on Rattus norvegicus [9], 10%; in the assay on Rattus norvegicus [3] it was 0%. Further, the Decrease in the assay filed under Rattus norvegicus [8] is 13%.

Take `CC(=O)Nc1nc2nc(C3CC3)ncc2cc1-c1c(Cl)cccc1Cl`: the Activity rating in the assay with Rattus norvegicus [7] turned out to be 10%; with Rattus norvegicus [1] it was 0%; in the assay with Rattus norvegicus [9] it was 10%. The Decrease in the assay listed under Rattus norvegicus [8] is 24%.

With `C/N=C(\S)Nc1nc2nc(C)ncc2cc1-c1c(Cl)cccc1Cl`, the values for the Activity rating with Rattus norvegicus [1], in the assay with Rattus norvegicus [9] and in the assay with Rattus norvegicus [3] were 0%, 10% and 0%, respectively. The Decrease in the assay listed under Rattus norvegicus [8] was found to be 12%.

In the case of `CC(=O)Nc1nc2nc(C)nc(C)c2cc1-c1ccccc1C`, the Activity rating in the assay on Rattus norvegicus [1], in the assay on Rattus norvegicus [2] and in the assay on Rattus norvegicus [3] was 0% in each case.
